Some test systems named below: MALME-3M melanoma; SK-MEL-5 melanoma; A549 NSCLC; SN12C renal; HT29 colon; HOP-62 NSCLC; SNB-75 CNS; OVCAR-5 ovarian; 786-0 renal; IGROV1 ovarian.
Common to all, as to assay: NCI-60 cell line screen, 48 h

The structures appear in SMILES notation. “And” between values parts separate entries of the source, which are not always exact repeats. Identical values can stand only once.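 Cells were grown in 96-well plates and exposed to each compound for 48 hours at five concentrations; endpoints were interpolated linearly between bracketing concentrations, or set to the highest concentration if not reached. At the GI50, growth is halved. TGI marks complete inhibition of growth.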 Where only a bound is given, the exact number is not on record here.

For `COc1cc(Nc2nc3ccccc3cc2C(=O)Nc2ccc(F)c(F)c2)cc(OC)c1OC`, the GI50 is 2.68 µM in the test with MALME-3M melanoma; 1.62 µM in the test with SK-MEL-5 melanoma; 3.08 µM with A549 NSCLC; 3.43 µM in the test on SN12C renal; 3.59 µM in the test on HT29 colon; 2.73 µM in the test on HOP-62 NSCLC. Also, the GI50 in the test with SNB-75 CNS was 2.27 µM; with OVCAR-5 ovarian, 4.29 µM; in the test with 786-0 renal, 3.38 µM; in the test on IGROV1 ovarian, 4.08 µM. Also, the TGI in the test on MALME-3M melanoma was 6.41 µM; in the test with SK-MEL-5 melanoma, 3.11 µM; in the test on A549 NSCLC, over 100 µM; in the test on SN12C renal it was over 100 µM; in the test with HT29 colon it was over 100 µM; with HOP-62 NSCLC, 12.2 µM. Further, the TGI with SNB-75 CNS is 9.35 µM; in the test on OVCAR-5 ovarian it was over 100 µM; with 786-0 renal, over 100 µM; in the test on IGROV1 ovarian it was over 100 µM.
As for `CN1C(=O)N[C@H]2[C@@H]3NC(=O)c4ccc(Br)n4[C@@H]3C[C@]21O`, the GI50 with MALME-3M melanoma is 0.103 µM; with SK-MEL-5 melanoma, under 0.0148 µM; in the test with A549 NSCLC it was 0.27 µM; with SN12C renal it was 0.106 µM; in the test on HT29 colon, 0.0956 µM; in the test with HOP-62 NSCLC it was 0.117 µM. Moreover, the GI50 with SNB-75 CNS is 0.106 µM; with OVCAR-5 ovarian, 1.03 µM; in the test on 786-0 renal it was 0.223 µM; with IGROV1 ovarian it was 0.0617 µM. Further, the TGI stood at 0.731 µM with MALME-3M melanoma; 0.0653 µM in the test on SK-MEL-5 melanoma; 4.47 µM with A549 NSCLC; 2.19 µM in the test on SN12C renal; 2.29 µM with HT29 colon; 1.09 µM in the test on HOP-62 NSCLC. For the same compound, the TGI in the test with SNB-75 CNS stood at 0.969 µM; in the test on OVCAR-5 ovarian, 6.3 µM; with 786-0 renal, 1.82 µM; in the test on IGROV1 ovarian it was 1.6 µM.
Consider `Cc1sc2c(c1C)C(c1ccc(Cl)cc1)=N[C@@H](CC(=O)OC(C)(C)C)c1nnc(C)n1-2`, for which the GI50 was 11.4 µM and 4.84 µM with MALME-3M melanoma; 0.0966 µM and 0.337 µM with SK-MEL-5 melanoma; 0.73 µM and 0.312 µM in the test with A549 NSCLC; 8.65 µM and 1.95 µM in the test with SN12C renal; 0.209 µM and 0.0986 µM in the test on HT29 colon; 0.253 µM and 0.121 µM in the test with HOP-62 NSCLC. The GI50 with SNB-75 CNS is 0.0325 µM and 0.025 µM; in the test on OVCAR-5 ovarian, 11.9 µM and 10.4 µM; in the test with 786-0 renal, 0.605 µM and 0.841 µM; with IGROV1 ovarian it was 0.808 µM and 0.645 µM. Further, the TGI in the test on MALME-3M melanoma was 26.4 µM and 22.1 µM; in the test on SK-MEL-5 melanoma it was 4.27 µM and 14.2 µM; in the test on A549 NSCLC, 21.8 µM and 15.3 µM; with SN12C renal, 25.9 µM and 22 µM; in the test on HT29 colon, 14.9 µM; in the test on HOP-62 NSCLC, 17.1 µM and 16.4 µM. Moreover, the TGI with OVCAR-5 ovarian is 25 µM and 22.7 µM; with 786-0 renal, 19.9 µM and 18.9 µM; in the test on IGROV1 ovarian it was 25 µM and 18.9 µM.
As for `Cc1cccc(C)c1NC(=O)Nc1ccc(S(N)(=O)=O)cc1`, the TGI in the test with MALME-3M melanoma, in the test on SK-MEL-5 melanoma, in the test with A549 NSCLC, in the test with SN12C renal, in the test with HT29 colon and with HOP-62 NSCLC was over 100 µM in each case. Besides, the TGI with SNB-75 CNS, with OVCAR-5 ovarian, in the test with 786-0 renal and with IGROV1 ovarian was over 100 µM each time.
As for `CN/N=C(\C)C(CN(C)C)C(c1ccccc1)c1c(O)c2ccccc2oc1=O` (centres undefined), the TGI in the test on MALME-3M melanoma, in the test with SK-MEL-5 melanoma, in the test on A549 NSCLC, in the test with SN12C renal, with HT29 colon and with HOP-62 NSCLC was over 100 µM each time. The TGI in the test on SNB-75 CNS, in the test with OVCAR-5 ovarian, with 786-0 renal and in the test with IGROV1 ovarian was over 100 µM throughout.
For the compound `CCCC(CCC)C(=O)OCC1(CO)C/C(=C\c2ccc(F)cc2)C(=O)O1` (centres undefined), the GI50 is 12.1 µM with MALME-3M melanoma; 0.829 µM in the test with SK-MEL-5 melanoma; 3.66 µM with A549 NSCLC; 12.4 µM with SN12C renal; 13.6 µM in the test with HT29 colon; 4.11 µM in the test with HOP-62 NSCLC. Further, the GI50 is 7.99 µM in the test on SNB-75 CNS, 16.6 µM in the test on OVCAR-5 ovarian, 10.5 µM with 786-0 renal and 15.5 µM in the test with IGROV1 ovarian. For the same compound, the TGI amounted to 27.2 µM with MALME-3M melanoma; 17 µM with SK-MEL-5 melanoma; 21.5 µM in the test with A549 NSCLC; 26.4 µM in the test on SN12C renal; 27.3 µM with HT29 colon; 17 µM with HOP-62 NSCLC. Further, the TGI with SNB-75 CNS was found to be 22.8 µM; in the test with OVCAR-5 ovarian it was 31.4 µM; in the test with 786-0 renal, 23.8 µM; in the test on IGROV1 ovarian it was 32.7 µM.
On to `CO[C@H](C(=O)[C@@H](O)[C@@H](C)O)[C@@H]1Cc2cc3cc(OC4CC(OC5CC(O)C(O)C(C)O5)C(O)C(C)O4)c(C)c(O)c3c(O)c2C(=O)[C@H]1OC1CC(OC2CC(OC3CC(C)(O)C(O)C(C)O3)C(O)C(C)O2)C(O)C(C)O1` (some centres undefined), for which the GI50 with MALME-3M melanoma is 0.0146 µg/mL and 0.0159 µg/mL; with SK-MEL-5 melanoma, 0.0199 µg/mL; with A549 NSCLC it was 0.027 µg/mL and 0.0212 µg/mL; in the test with SN12C renal, 0.0272 µg/mL and 0.011 µg/mL; with HT29 colon, 0.029 µg/mL and 0.0205 µg/mL; in the test on HOP-62 NSCLC, 0.0237 µg/mL and 0.02 µg/mL. For the same compound, the GI50 is 0.0141 µg/mL and 0.0224 µg/mL in the test on SNB-75 CNS; 0.0328 µg/mL and 0.113 µg/mL with OVCAR-5 ovarian; 0.0255 µg/mL and 0.0152 µg/mL and 713 nM in the test with 786-0 renal; 0.0472 µg/mL and 0.0289 µg/mL in the test with IGROV1 ovarian.
With `O=[N+]([O-])C1Cc2ccccc2OC1c1ccccc1` (centres undefined), the TGI in the test with MALME-3M melanoma was over 100 µM; in the test with SK-MEL-5 melanoma it was over 100 µM; in the test on A549 NSCLC, over 100 µM; with SN12C renal it was 63 µM; with HT29 colon, over 100 µM; with HOP-62 NSCLC it was 83.2 µM. Moreover, the TGI with SNB-75 CNS was 55.5 µM; in the test on OVCAR-5 ovarian it was over 100 µM; with 786-0 renal, over 100 µM; in the test on IGROV1 ovarian, over 100 µM.
As for `CC/C(CC(=O)CCC(=O)Nc1ccccc1[N+](=O)[O-])=N/NC(=O)C[n+]1ccccc1`, the TGI in the test on MALME-3M melanoma, in the test with SK-MEL-5 melanoma, in the test on A549 NSCLC, in the test with SN12C renal, in the test on HT29 colon and with HOP-62 NSCLC was over 100 µM each time. Further, the TGI with SNB-75 CNS, with OVCAR-5 ovarian, with 786-0 renal and in the test on IGROV1 ovarian was over 100 µM in each case.

The values above are taken from PubChem BioAssay (NCI).
